Molecular target: neurotensin receptor 1 (NTR1) (Homo sapiens (Human), UniProt P30989)
Assay: NTR1 dose response, high-content imaging beta-arrestin-GFP assay in NTR1-U2OS cells
Type: cell-based
Settings: read-out: EC50

Chain of neurotensin receptor 1 (NTR1) (P30989 whole entry, species assumed): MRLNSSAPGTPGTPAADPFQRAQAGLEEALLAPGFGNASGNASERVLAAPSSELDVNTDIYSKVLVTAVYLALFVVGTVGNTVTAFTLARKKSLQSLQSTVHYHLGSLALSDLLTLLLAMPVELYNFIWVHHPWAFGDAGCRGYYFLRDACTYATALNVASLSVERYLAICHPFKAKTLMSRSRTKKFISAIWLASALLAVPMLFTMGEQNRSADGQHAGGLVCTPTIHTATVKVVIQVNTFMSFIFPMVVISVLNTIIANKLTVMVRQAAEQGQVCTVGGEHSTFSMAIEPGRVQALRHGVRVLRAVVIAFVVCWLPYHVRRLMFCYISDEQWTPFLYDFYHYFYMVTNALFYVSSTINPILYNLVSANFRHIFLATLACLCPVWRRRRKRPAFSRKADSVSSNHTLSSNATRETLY

| EC50 [µM] | SMILES |
| --- | --- |
| 2 to 10 | CN(C)c1ccccc1C1CCN(c2nc(C3(C(F)(F)F)CCCC3)nc3ccc(N(C)CCN4CCOCC4)cc23)CC1 [Example 58, [4-[4-(2-dimethylamino-phenyl)-piperidin-1-yl]-2-(1-trifluoromethyl-cyclopentyl)-quinazolin-6-yl]-methyl-(2-morpholin-4-yl-ethyl)-amine] |
| 0.5 to 2 | COc1cccnc1C1CCN(c2nc(C3(F)CC3)nc3ccc(N(C)CCO)cc23)CC1 [Example 206, 2-{[2-(1-Fluoro-cyclopropyl)-4-(3-methoxy-3′,4′,5′,6′-tetrahydro-2′H-[2,4′]bipyridinyl-1′-yl)-quinazolin-6-yl]-methyl-amino}-ethanol] |
| 0.5 to 2 | COCCN(C)c1ccc2nc(C3(F)CC3)nc(N3CCC(c4ccccc4OC)CC3)c2c1 [Example 16, {2-(1-fluoro-cyclopropyl)-4-[4-(2-methoxy-phenyl)-piperidin-1-yl]-quinazolin-6-yl}-(2-methoxy-ethyl)-methyl-amine] |
| 0.5 to 2 | COc1nccnc1C1CCN(c2nc(C3(F)CC3)nc3ccc(N(C)CCO)cc23)CC1 [Example 208, 2-({2-(1-Fluoro-cyclopropyl)-4-[4-(3-methoxy-pyrazin-2-yl)-piperidin-1-yl]-quinazolin-6-yl}-methyl-amino)-ethanol] |
| 0.5 to 2 | COc1ccccc1C1CCN(c2nc(C3(F)CC3)nc3ccc(N4CC[C@@H](O)C4)cc23)CC1 [Example 178, (R)-1-{2-(1-Fluoro-cyclopropyl)-4-[4-(2-methoxy-phenyl)-piperidin-1-yl]-quinazolin-6-yl}-pyrrolidin-3-ol] |
| > 10 | CCOC(=O)CN(C)C1CCN(c2ccc3nc(C4CC4)nc(N4CCC(c5ccccc5OC)CC4)c3c2)CC1 [Example 93, [(1-{2-cyclopropyl-4-[4-(2-methoxy-phenyl)-piperidin-1-yl]-quinazolin-6-yl}-piperidin-4-yl)-methyl-amino]-acetic acid ethyl ester] |
| > 10 | COc1ccccc1C1CCN(c2nc(C3CC3)nc(C)c2CC(=O)N(C)C)CC1 [Example 157, 2-{2-cyclopropyl-4-[4-(2-methoxy-phenyl)-piperidin-1-yl]-6-methyl-pyrimidin-5-yl}-N,N-dimethyl-acetamide] |
| > 10 | COc1cc(F)ccc1C1CCN(c2nc(C3CC3)nc3cc(Cl)c(N(C)CCO)cc23)CC1 [Example 112, 2-({7-chloro-2-cyclopropyl-4-[4-(4-fluoro-2-methoxy-phenyl)-piperidin-1-yl]-quinazolin-6-yl}-methyl-amino)-ethanol] |
| 2 to 10 | CN(C)c1ccccc1C1CCN(c2nc(C3(F)CCCC3)nc3ccc(N(C)CCN4CCOCC4)cc23)CC1 [Example 73, [4-[4-(2-dimethylamino-phenyl)-piperidin-1-yl]-2-(1-fluoro-cyclopentyl)-quinazolin-6-yl]-methyl-(2-morpholin-4-yl-ethyl)-amine] |
| 2 to 10 | CCCN(C)c1ccc2c(N3CCC(c4ccccc4OC)CC3)nc(C3CC3)nc2c1 [Example 170, {2-Cyclopropyl-4-[4-(2-methoxy-phenyl)-piperidin-1-yl]-quinazolin-7-yl}-methyl-propyl-amine] |
| 2 to 10 | COc1ccsc1C1CCN(c2nc(C3CC3)nc3ccc(N(C)CCO)cc23)CC1 [Example 190, 2-({2-Cyclopropyl-4-[4-(3-methoxy-thiophen-2-yl)-piperidin-1-yl]-quinazolin-6-yl}-methyl-amino)-ethanol] |
| 0.5 to 2 | COc1ncccc1C1CCN(c2nc(C3(F)CC3)nc3ccc(N(C)CCO)cc23)CC1 [Example 207, 2-{[2-(1-Fluoro-cyclopropyl)-4-(2-methoxy-3′,4′,5′,6′-tetrahydro-2′H-[3,4′]bipyridinyl-1′-yl)-quinazolin-6-yl]-methyl-amino}-ethanol] |
| < 0.5 | COc1ccccc1C1CCN(c2nc(C3(C(F)(F)F)CC3)nc3ccc(N(C)CCO)cc23)CC1 [Example 47, 2-{[4-[4-(2-methoxy-phenyl)-piperidin-1-yl]-2-(1-trifluoromethyl-cyclopropyl)-quinazolin-6-yl]-methyl-amino}-ethanol] |
| 0.5 to 2 | COc1ccccc1C1CCN(c2nc(C3CC3)nc3ccc(N4CC[C@@H](O)C4)cc23)CC1 [Example 175, (R)-1-{2-cyclopropyl-4-[4-(2-methoxy-phenyl)-piperidin-1-yl]-quinazolin-6-yl}-pyrrolidin-3-ol] |
| 0.5 to 2 | COc1nccnc1C1CCN(c2nc(C3(C)CC3)nc3ccc(N(C)CCO)cc23)CC1 [Example 205, 2-{[4-[4-(3-Methoxy-pyrazin-2-yl)-piperidin-1-yl]-2-(1-methyl-cyclopropyl)-quinazolin-6-yl]-methyl-amino}-ethanol] |
| 0.5 to 2 | COc1ccccc1C1CCN(c2nc(C3(F)CC3)nc3ccc(N(C)CCOCCF)cc23)CC1 [Example 223, {2-(1-Fluoro-cyclopropyl)-4-[4-(2-methoxy-phenyl)-piperidin-1-yl]-quinazolin-6-yl}-[2-(2-fluoro-ethoxy)-ethyl]-methyl-amine] |
| < 0.5 | COc1ccccc1C1CCN(c2nc(C3CC3)nc3cnc(N(C)CCO)cc23)CC1 [Example 137, 2-({2-cyclopropyl-4-[4-(2-methoxy-phenyl)-piperidin-1-yl]-pyrido[3,4-d]pyrimidin-6-yl}-methyl-amino)-ethanol] |

| EC50 [µM] | SMILES |
| --- | --- |
| 0.5 to 2 | Cc1cc2nc(C3CC3)nc(N3CCC(c4ccccc4N4CCC4)CC3)c2cc1N(C)CCO [Example 121, 2-({4-[4-(2-azetidin-1-yl-phenyl)-piperidin-1-yl]-2-cyclopropyl-7-methyl-quinazolin-6-yl}-methyl-amino)-ethanol] |
| 2 to 10 | COc1ccccc1C1CCN(c2nc(C3CC3)nc3ccc(N4CC[C@@H](N(C)C)C4)cc23)CC1 (stereo in doubt) [Example 91, (1-{2-cyclopropyl-4-[4-(2-methoxy-phenyl)-piperidin-1-yl]-quinazolin-6-yl}-pyrrolidin-3-yl)-dimethyl-amine] |
| 0.5 to 2 | COc1ccccc1C1CCN(c2nc(C3(F)CC3)nc3cc(Cl)c(N(C)CCO)cc23)CC1 [Example 172] |
| > 10 | COCCN(C)c1ccc2nc(C3(C)CC3)nc(N3CCC(c4ccccc4N(C)C)CC3)c2c1 [Example 26, [4-[4-(2-dimethylamino-phenyl)-piperidin-1-yl]-2-(1-methyl-cyclopropyl)-quinazolin-6-yl]-(2-methoxy-ethyl)-methyl-amine] |
| 2 to 10 | CCCN(C)c1ccc2nc(C3CC3)nc(N3CC4(CN(c5ccccc5OC)C4)C3)c2c1 [Example 100, {2-cyclopropyl-4-[6-(2-methoxy-phenyl)-2,6-diaza-spiro [3.3]hept-2-yl]-quinazolin-6-yl}-methyl-propyl-amine] |
| 0.5 to 2 | CN(C)c1ccccc1C1CCN(c2nc(C3(C)CCC3)nc3ccc(N(C)CCO)cc23)CC1 [Example 68, 2-{[4-[4-(2-dimethylamino-phenyl)-piperidin-1-yl]-2-(1-methyl-cyclobutyl)-quinazolin-6-yl]-methyl-amino}-ethanol] |
| 0.5 to 2 | COc1ccccc1C1CCN(c2nc(C3(F)CCCC3)nc3ccc(N(C)CCO)cc23)CC1 [Example 72, 2-({2-(1-fluoro-cyclopentyl)-4-[4-(2-methoxy-phenyl)-piperidin-1-yl]-quinazolin-6-yl}-methyl-amino)-ethanol] |
| 2 to 10 | COc1ccccc1C1CCN(c2nc(C3(C)CC3)nc3ccc(N(C)CCN4CCCC4)cc23)CC1 [Example 24, [4-[4-(2-methoxy-phenyl)-piperidin-1-yl]-2-(1-methyl-cyclopropyl)-quinazolin-6-yl]-methyl-(2-pyrrolidin-1-yl-ethyl)-amine] |
| 2 to 10 | COc1ccccc1C1CCN(c2nc(C3(F)CC3)nc3ccc(N(C)CC(=O)O)cc23)CC1 [Example 180, 2-((2-(1-fluorocyclopropyl)-4-(4-(2-methoxyphenyl)piperidin-1-yl)quinazolin-6-yl)(methyl)amino)acetic acid] |
| 2 to 10 | CN(CCO)c1cc2c(N3CCC(c4ccccc4N4CCC4)CC3)nc(C3CC3)nc2cc1Cl [Example 119, 2-({4-[4-(2-azetidin-1-yl-phenyl)-piperidin-1-yl]-7-chloro-2-cyclopropyl-quinazolin-6-yl}-methyl-amino)-ethanol] |
| < 0.5 | COc1ccccc1C1CCN(c2nc(C3(F)CC3)nc3cnc(N(C)CCO)cc23)CC1 [Example 195, 2-({2-(1-Fluoro-cyclopropyl)-4-[4-(2-methoxy-phenyl)-piperidin-1-yl]-pyrido[3,4-d]pyrimidin-6-yl}-methyl-amino)-ethanol] |
| 2 to 10 | CN(C)CCN(C)c1ccc2nc(C3CC3)nc(N3CCC(c4ccccc4N4CCC4)CC3)c2c1 [Example 5, N-{4-[4-(2-azetidin-1-yl-phenyl)-piperidin-1-yl]-2-cyclopropyl-quinazolin-6-yl}-N,N′,N′-trimethyl-ethane-1,2-diamine] |
| < 0.5 | COc1ccccc1C1CCN(c2nc(C3CC3)nc3ccc(N4CC[C@@H](OC)C4)cc23)CC1 [Example 83, (R)-2-cyclopropyl-4-(4-(2-methoxyphenyl)piperidin-1-yl)-6-(3-methoxypyrrolidin-1-yl)quinazoline] |
| > 10 | CN(C)c1ccccc1C1CCN(c2nc(C3(C)CC3)nc3ccc(N(C)CCN4CCOCC4)cc23)CC1 [Example 27] |
| 2 to 10 | CN(CCOCCF)c1ccc2nc(C3(F)CC3)nc(N3CCC(c4ccccc4OCCF)CC3)c2c1 [Example 222, (2-(1-Fluoro-cyclopropyl)-4-{4-[2-(2-fluoro-ethoxy)-phenyl]-piperidin-1-yl}-quinazolin-6-yl)-[2-(2-fluoro-ethoxy)-ethyl]-methyl-amine] |
| 2 to 10 | COc1ccccc1C1CCN(c2nc(C3CC3)nc3ccc(N4CCC(O)CC4)cc23)CC1 [Example 76, 1-{2-cyclopropyl-4-[4-(2-methoxy-phenyl)-piperidin-1-yl]-quinazolin-6-yl}-piperidin-4-ol] |
| > 10 | COc1ccccc1C1CCN(c2nc(C3CCCC3)nc3ccc(N(C)CCN4CCOCC4)cc23)CC1 [Example 41] |

| SMILES | EC50 [µM] |
| --- | --- |
| COc1ccccc1C1CCN(c2nc(OC3CCC3)nc3ccc(N(C)CCO)cc23)CC1 [Example 193, 2-((2-cyclobutoxy-4-(4-(2-methoxyphenyl)piperidin-1-yl)quinazolin-6-yl)(methyl)amino)ethanol] | 0.5 to 2 |

— patent publication US10118902B2 (Sanford Burnham Prebys Medical Discovery Institute, priority 2014, dated 2018)
